In the test the test system is hair cells. Kind of test: Hair cell toxicity assay in zebrafish (neomycin-induced hair cell death, DASPEI staining of neuromasts). Format: in vivo. The conditions noted are these: for Emax at 25 µM: maximum observed @ 25 μM test compound; for EC50: zebrafish larvae 5-7 dpf, 1 h pre-treatment, then 200 micromolar neomycin + test compound 30 min, read-out: HC50 (concentration that would produce 50% hair cell survival); for Emax at 2.8 µM: maximum observed @ 2.8 μM test compound; for Emax at 8.3 µM: maximum observed @ 8.3 μM test compound. Here is the method: Zebrafish are bred and newly fertilized embryos are collected the week prior and raised at 28.5° C. in petri dishes containing embryo medium. Newly hatched free-swimming larvae are fed paramecium and dry fish food at 4 days post fertilization (dpf) with lights on. For treatment, fish 5-7 dpf are transferred to cell culture baskets and place within a well of a 6-well plate containing 7 milliliters of 1× embryo medium. Typically, tests are done with ten fish per basket but work well with up to 50 fish. All treatment and wash volumes are 7 milliliters. • 1. Fish are pre-treated with test compound for 1 hour. […] Treat with 200 micromolar neomycin (neomycin sulfate, Sigma, St. Louis, Mo., catalog #N1142)+test compound for 30 minutes. • 3. Rinse fish briefly 4 times in embryo medium and add 700 μl of 0.05% DASPEI (2-{4-(dimethylamino)styryl}-N-ethylpyridinium iodide, Molecular Probes, Eugene, Oreg.) and allowed to stain for 15 minutes. • 4. Rinse twice in embryo medium and add 350 μl MS222 (0.55 ug/ml final concentration, 3-aminobenzoic acid ethyl ester, methansulfoneate salt, Sigma, St. Louis, Mo.) to anesthetize. • 5. View with epifluorescence dissecting microscope equipped with a DAPSEI filter set (excitation […], Chroma Technologies, Brattleboro, Vt.). For assessment of initial dose response curves, fish are transferred to wide depression slide with wide-bore pipette. The DASPEI staining of ten neuromasts (SO1, SO2, IO1, IO2, IO3, IO4, M2, MI1, MI2 and O2) on one side of an animal are evaluated. Each neuromast is scored for presence of DASPEI staining (score=2), reduced DASPEI staining (score=1) or absence of DASPEI staining (score=0). Total scores for an animal are tabulated, to give a composite score that can range from 0 to 20. Average scores and standard deviations are calculated for animals in each treatment group. Scores are normalized to control group (vehicle only, no drug, no neomycin) and expressed as % hair cell survival. HCmax is the maximum protection (hair cell survival) observed. • 6. If at least 50% hair cells survive, the HC50 (concentration that would produce 50% hair cell survival) is calculated as a linear extrapolation from the nearest concentrations of protective drug that produce hair cell survival below and above 50%. If less than 50% hair cells survive, the HC50 is not determined. 1× embryo media (standard lab EM): • 1 mM MgSO4, • 0.15 mM KH2PO4, • 0.05 mM Na2HPO4, • 1 mM CaCl2, • 0.5 mM KCl • 15 mM NaCl • 0.7 mM NaHCO3

Where [1] appears, read: Danio rerio, 200 micromolar neomycin, read-out: Max HC Protection (HCmax, % hair cell survival).

Structures can show the parent of a compound that is named as a salt. Where two headings read alike, the source gives them in different places. Some results are limits rather than exact numbers.

Consider `CCN1CCc2c(sc(NC(=O)Nc3ccc(C(=O)OC)cc3)c2C(N)=O)C1` [Example 31, Methyl 4-[3-(3-carbamoyl-6-ethyl-4,5,6,7-tetrahydrothieno[2,3-c]pyridin-2-yl)ureido]benzoate trifluoroacetate], for which the Emax at 25 µM under setting [1] worked out at 22%. Regarding `CCN1CCc2sc(NC(=O)Nc3ccc(Cl)cc3)c(C(N)=O)c2CC1` [Example 115, 2-[3-(4-Chlorophenyl)ureido]-6-ethyl-5,6,7,8-tetrahydro-4H-thieno[2,3-d]azepine-3-carboxamide hydrochloride], the Emax at 25 µM under setting [1] worked out at 99%. The EC50 (Danio rerio) is 1 to 10 µM. The corresponding values for `CN1CCC(N2CCc3c(sc(NC(=O)Nc4ccc(Cl)cc4)c3C(N)=O)C2)C1` (racemic) [Example 9, (+/−)-2-[3-(4-Chlorophenyl)ureido]-6-(1-methylpyrrolidin-3-yl)-4,5,6,7-tetrahydrothieno[2,3-c]pyridine-3-carboxamide dihydrochloride] are 82% and 1 to 10 µM. Turning to `CC(C)(C)OC(=O)NCCCN1CCc2c(sc(NC(=O)Nc3ccc(C(=O)c4ccccc4)cc3)c2C(N)=O)C1` [Example 208, tert-Butyl N-[3-(2-{[(4-benzoylphenyl)carbamoyl]amino}-3-carbamoyl-4H,5H,6H,7H-thieno[2,3-c]pyridin-6-yl)propyl]carbamate], under setting [1], the Emax at 2.8 µM is 56%. Under “Danio rerio”, the EC50 was in the range of 1 to 10 µM. As for `C[N+]1(CC2CCC2)CCc2c(sc(NC(=O)Nc3ccc4ccccc4c3)c2C(N)=O)C1` (centres unmarked) [Example 176, 3-Carbamoyl-6-(cyclobutylmethyl)-6-methyl-2-[3-(naphthalen-2-yl)ureido]-4,5,6,7-tetrahydrothieno[2,3-c]pyridin-6-ium iodide], under setting [1], the Emax at 8.3 µM worked out at 100%. Moreover, the EC50 (Danio rerio) was under 1 µM. With `CC(C1CCC1)[N+]1(C)CCc2c(sc(NC(=O)Nc3ccc(Cl)cc3)c2C(N)=O)C1` (racemic) [Example 203, (+/−)-3-Carbamoyl-2-[3-(4-chlorophenyl)ureido]-6-(1-cyclobutylethyl)-6-methyl-4,5,6,7-tetrahydrothieno[2,3-c]pyridin-6-ium chloride], under setting [1], the Emax at 2.8 µM worked out at 75%. In addition, the EC50 (Danio rerio) was under 1 µM. Take `CCN1CCc2c(sc(NC(=O)Nc3cncc4ccccc34)c2C(N)=O)C1` [Example 81, 6-Ethyl-2-[3-(isoquinolin-4-yl)ureido]-4,5,6,7-tetrahydrothieno[2,3-c]pyridine-3-carboxamide dihydrochloride]: the Emax at 8.3 µM under setting [1] came to 32%. Take `C[N+]1(C)CCCC12CCc1c(sc(NC(=O)Nc3ccc(Cl)cc3)c1C(N)=O)C2` (racemic) [Example 186, (+/−)-3-Carbamoyl-2-[3-(4-chlorophenyl)ureido]-1′,1′-dimethyl-5,7-dihydro-4H-spiro(benzo[b]thiophene-6,2′-pyrrolidin)-1′-ium trifluoroacetate]: under setting [1], the Emax at 2.8 µM was 65%. In addition, for the setting “Danio rerio”, the EC50 was under 1 µM. On to `NC(=O)c1c(NC(=O)Nc2ccc(Cl)cc2)sc2c1CC1CCC2N1` (racemic) [Example 122, (+/−)-2-[3-(4-chlorophenyl)ureido]-5,6,7,8-tetrahydro-4H-5,8-epiminocyclohepta[b]thiophene-3-carboxamide hydrochloride], for which the Emax at 25 µM under setting [1] came to 91%. Besides, the EC50 (Danio rerio) was under 1 µM. The corresponding values for `NC(=O)c1c(NC(=O)Nc2ccc(Cl)cc2)sc2c1CCN(CCCNC(=O)CCc1ccccc1)C2` [Example 210, 2-{[(4-chlorophenyl)carbamoyl]amino}-6-[3-(3-phenylpropanamido)propyl]-4H,5H,6H,7H-thieno[2,3-c]pyridine-3-carboxamide] are 99% and under 1 µM. For `NC(=O)c1c(NC(=O)Nc2ccc(Cl)cc2)sc2c1CC1CCCCN1C2` (racemic) [Example 117, (+/−)-2-[3-(4-chlorophenyl)ureido]-4a,5,6,7,8,10-hexahydro-4H-thieno[3,2-b]quinolizine-3-carboxamide hydrochloride], in that order: 78% and 1 to 10 µM. For `CC(C)OC(=O)CCN1CCc2c(sc(NC(=O)Nc3ccc(Cl)cc3)c2C(N)=O)C1` [Example 54, Isopropyl 3-{3-carbamoyl-2-[3-(4-chlorophenyl)ureido]-4,5-dihydrothieno[2,3-c]pyridin-6(7H)-yl}propanoate hydrochloride], in that order: 58% and 1 to 10 µM. As for `CC[N+]1(C)CCc2c(sc(NC(=O)N(C)c3ccc(Cl)cc3)c2C(N)=O)C1` (centres unmarked) [Example 185, 3-Carbamoyl-2-[3-(4-chlorophenyl)-3-methylureido]-6-ethyl-6-methyl-4,5,6,7-tetrahydrothieno[2,3-c]pyridin-6-ium chloride], the Emax at 2.8 µM under setting [1] turned out to be 16%. On to `NC(=O)c1c(NC(=O)Nc2ccc(Cl)cc2)sc2c1CC1CCC2N1` (racemic) [Example 124, (+/−)-2-[3-(4-chlorophenyl)ureido]-5,6,7,8-tetrahydro-4H-5,8-epiminocyclohepta[b]thiophene-3-carboxamide hydrochloride], for which the EC50 was under 1 µM. In the case of `CN(C)C(=O)CCCN1CCc2c(sc(NC(=O)Nc3ccc(Cl)cc3)c2C(N)=O)C1` [Example 23, 2-[3-(4-Chlorophenyl)ureido]-6-[4-(dimethylamino)-4-oxobutyl]-4,5,6,7-tetrahydrothieno[2,3-c]pyridine-3-carboxamide hydrochloride], the Emax at 2.8 µM under setting [1] is 43%. Turning to `C[N+]1(CC2CCCCC2)CCc2c(sc(NC(=O)Nc3ccc(Cl)cc3)c2C(N)=O)C1` (centres unmarked) [Example 152, 3-Carbamoyl-2-[3-(4-chlorophenyl)ureido]-6-(cyclohexylmethyl)-6-methyl-4,5,6,7-tetrahydrothieno[2,3-c]pyridin-6-ium iodide], the Emax at 0.9 µM (Danio rerio, maximum observed @ 0.9 μM test compound, 200 micromolar neomycin, read-out: Max HC Protection (HCmax, % hair cell survival)) amounted to 78%. The EC50 (Danio rerio) is under 1 µM. For the compound `C[N+]1(C)CCc2c(sc(NC(=O)Nc3ccc(Cl)cc3)c2C(N)=O)C1` [Example 162, 3-Carbamoyl-2-[3-(4-chlorophenyl)ureido]-6,6-dimethyl-4,5,6,7-tetrahydrothieno[2,3-c]pyridin-6-ium trifluoroacetate], the Emax at 2.8 µM under setting [1] was found to be 36%. For the compound `CC[N+]1(C)CCCc2c(sc(NC(=O)Nc3ccc(Cl)cc3)c2C(N)=O)C1` (centres unmarked) [Example 173, 3-Carbamoyl-2-[3-(4-chlorophenyl)ureido]-7-ethyl-7-methyl-5,6,7,8-tetrahydro-4H-thieno[2,3-c]azepin-7-ium iodide], the Emax at 25 µM under setting [1] was 102%. In addition, for the setting “Danio rerio”, the EC50 lay within 1 to 10 µM.

Consider `CCN1CCc2c(sc(NC(=O)Nc3ccccc3Cl)c2C(N)=O)C1` [Example 65, 2-[3-(2-Chlorophenyl)ureido]-6-ethyl-4,5,6,7-tetrahydrothieno[2,3-c]pyridine-3-carboxamide hydrochloride], for which the Emax at 2.8 µM under setting [1] turned out to be 17%. In the case of `CC[N+]1(C)CCc2c(sc(NC(=O)Nc3ccc(Cl)cc3)c2C(=O)N2CCOCC2)C1` (centres unmarked) [Example 179, 2-[3-(4-Chlorophenyl)ureido]-6-ethyl-6-methyl-3-(morpholine-4-carbonyl)-4,5,6,7-tetrahydrothieno[2,3-c]pyridin-6-ium chloride], the Emax at 8.3 µM under setting [1] was determined as 38%.
